This assay deals with BDF1 mice, Lymphoma 8 ip, survival T/C. Briefly: NCI In Vivo Anticancer Drug Screen. Data for tumor model Lymphoma 8 (intraperitoneal) in B6D2F1 (BDF1) mice. The following applies: higher = longer survival. The method, then: The antitumor activity of compounds was measured in mice bearing transplantable tumors. Survival or tumor size were measured and the results are expressed as the measurement made in the treated group (T) divided by the measurement made in the vehicle treated control group (C). The tumor model used in this assay is Lymphoma 8 (intraperitoneal) in B6D2F1 (BDF1) mice

[1] abbreviates: endpoint: survival time, mean or median, dose: 4.0 mg/kg/injection, schedule: Q01DX010 (ip), vehicle: saline.
[2] abbreviates: endpoint: survival time, mean or median, dose: 8.0 mg/kg/injection, schedule: Q01DX010 (ip), vehicle: saline.
The mark [3] stands for this setting: endpoint: survival time, mean or median, dose: 50.0 mg/kg/injection, schedule: Q01DX010 (ip), vehicle: saline.
[4] abbreviates: endpoint: survival time, mean or median, dose: 100.0 mg/kg/injection, schedule: Q01DX010 (ip), vehicle: saline.
Where [5] appears, read: endpoint: survival time, mean or median, dose: 25.0 mg/kg/injection, schedule: Q01DX015 (ip), vehicle: carboxymethylcellulose (CMC).
Setting [6] is: endpoint: survival time, mean or median, dose: 50.0 mg/kg/injection, schedule: Q01DX015 (ip), vehicle: carboxymethylcellulose (CMC).
[7] abbreviates: endpoint: survival time, mean or median, dose: 1.0 mg/kg/injection, schedule: Q01DX010 (ip), vehicle: saline.
Setting [8] is: endpoint: survival time, mean or median, dose: 0.5 mg/kg/injection, schedule: Q01DX010 (ip), vehicle: saline.

The structures appear in SMILES notation. Several values for one entry are separate records, joined by “and”; a condition that tells them apart may be missing. Equal values may be shown once. Inconclusive results and toxic doses are left out.

The results in this text go back to PubChem BioAssay AID242 (DTP/NCI, 2004).

On to `CN(C)c1nc(N(C)C)nc(N(C)C)n1`, for which the T/C is, setting by setting: (endpoint: survival time, mean or median, dose: 18.8 mg/kg/injection, schedule: Q01DX010 (ip), vehicle: saline) 104 % of control and 122 % of control; (endpoint: survival time, mean or median, dose: 37.5 mg/kg/injection, schedule: Q01DX010 (ip), vehicle: saline) 95 % of control and 113 % of control; (endpoint: survival time, mean or median, dose: 75.0 mg/kg/injection, schedule: Q01DX010 (ip), vehicle: saline) 100 % of control; (endpoint: survival time, mean or median, dose: 150.0 mg/kg/injection, schedule: Q01DX010 (ip), vehicle: saline) 100 % of control.
On to `Nc1nc(=S)c2ncn(C3OC(CO)C(O)C3O)c2[nH]1` (configuration not stated), for which the T/C is 92 % of control under setting [1] and 89 % of control under setting [2].
With `CC(Cl)CN(Cc1cc(O)c(CN(CC(C)Cl)CC(C)Cl)cc1O)CC(C)Cl` (configuration not stated), the T/C was 100 % of control (endpoint: survival time, mean or median, dose: 62.5 mg/kg/injection, schedule: Q01DX015 (ip), vehicle: carboxymethylcellulose (CMC)); 95 % of control (endpoint: survival time, mean or median, dose: 125.0 mg/kg/injection, schedule: Q01DX015 (ip), vehicle: carboxymethylcellulose (CMC)); 94 % of control (endpoint: survival time, mean or median, dose: 250.0 mg/kg/injection, schedule: Q01DX015 (ip), vehicle: carboxymethylcellulose (CMC)); 88 % of control and 91 % of control (endpoint: survival time, mean or median, dose: 500.0 mg/kg/injection, schedule: Q01DX015 (ip), vehicle: carboxymethylcellulose (CMC)); 90 % of control (endpoint: survival time, mean or median, dose: 750.0 mg/kg/injection, schedule: Q01DX015 (ip), vehicle: carboxymethylcellulose (CMC)); 90 % of control (endpoint: survival time, mean or median, dose: 1000.0 mg/kg/injection, schedule: Q01DX015 (ip), vehicle: carboxymethylcellulose (CMC)).
In the case of `Nc1nc(SCc2ccccc2)c2[nH]cnc2n1`, the T/C was 91 % of control and 107 % of control under setting [2]; 100 % of control and 103 % of control (endpoint: survival time, mean or median, dose: 16.0 mg/kg/injection, schedule: Q01DX010 (ip), vehicle: saline); 100 % of control and 103 % of control (endpoint: survival time, mean or median, dose: 32.0 mg/kg/injection, schedule: Q01DX010 (ip), vehicle: saline); 91 % of control (endpoint: survival time, mean or median, dose: 64.0 mg/kg/injection, schedule: Q01DX010 (ip), vehicle: saline).
As for `CCN(CC)CCNc1ccc(C)c2sc3ccccc3c(=O)c12`, the T/C is, setting by setting: under setting [3], 122 % of control; under setting [4], 109 % of control.
Consider `CC(=O)OCC1OC(n2cnc3c(=S)nc[nH]c32)C(OC(C)=O)C1OC(C)=O` (configuration not stated), for which the T/C runs as follows: under setting [5], 101 % of control; under setting [6], 109 % of control; (endpoint: survival time, mean or median, dose: 100.0 mg/kg/injection, schedule: Q01DX015 (ip), vehicle: carboxymethylcellulose (CMC)) 104 % of control.
Consider `CCN(CC)c1ccc2cc3ccc(=[N+](CC)CC)cc-3oc2c1`, for which the T/C under setting [7] was 96 % of control.
Regarding `CN(N=O)C(=O)NC(C=O)C(O)C(O)C(O)CO` (configuration not stated), the T/C runs as follows: (endpoint: survival time, mean or median, dose: 12.5 mg/kg/injection, schedule: Q01DX010 (ip), vehicle: saline) 96 % of control; (endpoint: survival time, mean or median, dose: 25.0 mg/kg/injection, schedule: Q01DX008 (ip), vehicle: saline) 115 % of control; (endpoint: survival time, mean or median, dose: 25.0 mg/kg/injection, schedule: Q01DX010 (ip), vehicle: saline) 100 % of control; (endpoint: survival time, mean or median, dose: 50.0 mg/kg/injection, schedule: Q01DX008 (ip), vehicle: saline) 111 % of control; under setting [3], 121 % of control; (endpoint: survival time, mean or median, dose: 100.0 mg/kg/injection, schedule: Q01DX008 (ip), vehicle: saline) 115 % of control. Further, the T/C under setting [4] is 121 % of control.
On to `Cc1c(O)ccc(=O)n1O`, for which the T/C by setting is: (endpoint: survival time, mean or median, dose: 49.0 mg/kg/injection, schedule: Q01DX015 (ip), vehicle: other) 100 % of control; (endpoint: survival time, mean or median, dose: 73.0 mg/kg/injection, schedule: Q01DX015 (ip), vehicle: other) 97 % of control; (endpoint: survival time, mean or median, dose: 110.0 mg/kg/injection, schedule: Q01DX015 (ip), vehicle: other) 105 % of control.
Regarding `COc1ccc(C2NCCS2)cc1` (configuration not stated), the T/C runs as follows: under setting [3], 103 % of control; under setting [4], 100 % of control; (endpoint: survival time, mean or median, dose: 200.0 mg/kg/injection, schedule: Q01DX010 (ip), vehicle: saline) 106 % of control; (endpoint: survival time, mean or median, dose: 400.0 mg/kg/injection, schedule: Q01DX010 (ip), vehicle: saline) 100 % of control.
Take `N#CCSc1ncnc2nc[nH]c12`: the T/C reads like this: (endpoint: survival time, mean or median, dose: 15.0 mg/kg/injection, schedule: Q01DX010 (ip), vehicle: saline) 100 % of control; (endpoint: survival time, mean or median, dose: 30.0 mg/kg/injection, schedule: Q01DX010 (ip), vehicle: saline) 95 % of control and 104 % of control; (endpoint: survival time, mean or median, dose: 60.0 mg/kg/injection, schedule: Q01DX010 (ip), vehicle: saline) 100 % of control; (endpoint: survival time, mean or median, dose: 120.0 mg/kg/injection, schedule: Q01DX010 (ip), vehicle: saline) 100 % of control.
As for `CN(C)[C@@H]1C(=O)C(C(N)=O)=C(O)[C@@]2(O)C(=O)C3=C(O)c4c(O)cccc4C[C@H]3C[C@@H]12`, the T/C is, setting by setting: (endpoint: survival time, mean or median, dose: 15.0 mg/kg/injection, schedule: Q01DX015 (ip), vehicle: alkali diluted with saline) 93 % of control; (endpoint: survival time, mean or median, dose: 30.0 mg/kg/injection, schedule: Q01DX015 (ip), vehicle: alkali diluted with saline) 89 % of control.
Take `Clc1ccc2c(Cl)ncnc2c1`: the T/C was 95 % of control under setting [5] and 88 % of control under setting [6].
Turning to `C1CN1c1nc(N2CC2)nc(N2CC2)n1`, the T/C was 91 % of control and 100 % of control (endpoint: survival time, mean or median, dose: 0.13 mg/kg/injection, schedule: Q01DX010 (ip), vehicle: saline); 100 % of control and 104 % of control (endpoint: survival time, mean or median, dose: 0.25 mg/kg/injection, schedule: Q01DX010 (ip), vehicle: saline); 166 % of control under setting [8]; 87 % of control under setting [7].
As for `NC(Cc1c[nH]c2ccc(N(CCCl)CCCl)cc12)C(=O)O` (configuration not stated), the T/C is 92 % of control under setting [8], 103 % of control under setting [7] and 103 % of control under setting [1].
As for `C=CCSc1nc(N)nc2nc[nH]c12`, the T/C is, setting by setting: (endpoint: survival time, mean or median, dose: 16.0 mg/kg/injection, schedule: Q01DX015 (ip), vehicle: other) 101 % of control; (endpoint: survival time, mean or median, dose: 31.0 mg/kg/injection, schedule: Q01DX015 (ip), vehicle: other) 100 % of control; (endpoint: survival time, mean or median, dose: 62.5 mg/kg/injection, schedule: Q01DX015 (ip), vehicle: other) 90 % of control.
`N#[N+]c1cnc([O-])[nH]c1=O`: the T/C is, setting by setting: (endpoint: survival time, mean or median, dose: 1.25 mg/kg/injection, schedule: Q01DX010 (ip), vehicle: saline) 107 % of control; (endpoint: survival time, mean or median, dose: 2.5 mg/kg/injection, schedule: Q01DX010 (ip), vehicle: saline) 103 % of control; (endpoint: survival time, mean or median, dose: 5.0 mg/kg/injection, schedule: Q01DX010 (ip), vehicle: saline) 121 % of control; (endpoint: survival time, mean or median, dose: 10.0 mg/kg/injection, schedule: Q01DX010 (ip), vehicle: saline) 121 % of control.
For the compound `CN(Cc1cnc2nc(N)nc(N)c2n1)c1ccc(C(=O)N[C@@H](CCC(=O)O)C(=O)O)cc1`, the T/C is, setting by setting: (endpoint: median survival time, dose: 1.0 mg/kg/injection, schedule: Q01DX009 (ip), vehicle: sodium bicarbonate) 118 % of control; (endpoint: median survival time, dose: 2.0 mg/kg/injection, schedule: Q01DX009 (ip), vehicle: sodium bicarbonate) 93 % of control.
In the case of `C[n+]1c2ccccc2nc2c(N)cc(N)cc21`, the T/C by setting is: under setting [2], 121 % of control; (endpoint: survival time, mean or median, dose: 12.0 mg/kg/injection, schedule: Q01DX010 (ip), vehicle: saline) 117 % of control; (endpoint: survival time, mean or median, dose: 18.0 mg/kg/injection, schedule: Q01DX010 (ip), vehicle: saline) 107 % of control.
Regarding `Nc1nc2n[nH]nc2c(=O)[nH]1`, the T/C by setting is: (endpoint: survival time, mean or median, dose: 25.0 mg/kg/injection, schedule: Q01DX010 (ip), vehicle: alkali diluted with saline) 108 % of control; (endpoint: survival time, mean or median, dose: 50.0 mg/kg/injection, schedule: Q01DX010 (ip), vehicle: alkali diluted with saline) 104 % of control and 112 % of control; (endpoint: survival time, mean or median, dose: 100.0 mg/kg/injection, schedule: Q01DX010 (ip), vehicle: alkali diluted with saline) 112 % of control and 116 % of control; (endpoint: survival time, mean or median, dose: 200.0 mg/kg/injection, schedule: Q01DX010 (ip), vehicle: alkali diluted with saline) 116 % of control.
